In article PMC10415494, “Ga(III) pyridinecarboxylate complexes: potential analogues of the second generation of therapeutic Ga(III) complexes?” (Journal of Biological Inorganic Chemistry, 2023):
pIC50: −log10 of the molar value. Read-outs that look alike come from different tables or passages of the source.

Legend:
[1] = Potentiometric determination of ligand protonation (dissociation) constants; assay type: physicochemical; conditions: 25 °C, I(KNO3) = 0.1 M
Procedure: The stock solution of HPic and H2Dpic was prepared by dissolving in demineralized water (c(ligand) = 0.02 M). The gallium(III) ion solution was prepared from anhydrous gallium(III) nitrate (c(Ga^3+) = 0.05 M) and was standardized by back titration of excess of EDTA with zinc(II). Decarbonated potassium hydroxide solution (approx. 0.2 M) was used as a titrant that was standardized by potassium hydrogen phthalate (c(KHP) = 0.1 M). Standard inert electrolyte of nitric acid was used in all titrations (c(HNO3) = 0.03 M, I(HNO3/KNO3) = 0.1 M). Potentiometric measurements were carried out using a TitroLine 7000 dosage system with a BlueLine combination electrode (SI Analytics) in a glass vessel (5 mL) thermostated at 25 ± 0.1 °C at an ionic strength I(KNO3) = 0.1 M. Inert atmosphere was ensured by a constant flow of a nitrogen gas. Precise calibration of the electrode was carried out by the titration of 0.03 M HNO3 with 0.2 M KOH in the range –log[H^+] = 1.8–12.0, with the pH-meter yielding E values. The relation between E and –log[H^+] is expressed by Eq. (1) where the term E^0 contains the standard potentials of the electrode and the contribution of inert ions to the liquid-junction potential. The value S corresponds to the Nernstian slope, the value of which should be close to the theoretical value, and j1[H^+] and j2[OH^–] = j2Kw/[H^+] are contributions of the H^+ and OH^– ions, respectively, to the liquid-junction potential. The pKw value was 13.78 in Eq. (1).1 E=E^0-S-logH^++j1H^++j2Kw/H^+
The parameters j1 and j2 cause deviation from linear dependence between E and –log[H^+] only in strongly acidic and strongly alkaline solutions. The picolinic and dipicolinic acid protonation constants were determined with ligand concentration 0.004 M. The stability constants in the Ga-HPic and Ga-H2Dpic binary system were determined by the ligand concentrations 0.004 and the Ga^3+ concentration was 0.004, 0.002 and 0.001 M in dependence on the ligand to metal ratio.
The protonation constants β110, β210 are the concentration constants and are defined by β110 = [HL]/ [H][L], β210 = [H2L]/ [H]^2[L] (pK2 = logβ110, pK1 = logβ210- logβ110); the stability constants are defined by βrqp = [HrLqMp]/[H]^r[L]^q[M]^p. The equilibrium constants were obtained by fitting the titration data with OPIUM [23]. The following hydrolysis constants were used for the calculations: βpr = [Mp(OH)r^3−r][H]^r/[M]^p; log β11 = − 2.74; log β12 = − 7.0; log β13 = − 11.96; log β14 = − 15.52 [24].

[2] = tested on: Escherichia coli (E. coli) CCM 3988; experiment: Antimicrobial activity, macrodilution method (growth by A590); assay type: cell-based; conditions: Escherichia coli
[3] = tested on: Pseudomonas aeruginosa (P. aeruginosa) CCM 1959; experiment: as above; assay type: cell-based; conditions: Pseudomonas aeruginosa
[4] = tested on: Staphylococcus aureus (S. aureus) CCM 3953; experiment: as above; assay type: cell-based; conditions: Staphylococcus aureus
[5] = tested on: Rhizopus oryzae (R. oryzae) CCM F-8284; experiment: Growth of filamentous fungi, macrodilution method on solidified PDA (colony diameter); assay type: cell-based; conditions: Rhizopus arrhizus, read-out: IC50 R. oryzae
[6] = tested on: Microsporum gypseum (M. gypseum) CCM F-8342; experiment: as above; assay type: cell-based; conditions: Nannizzia gypsea, read-out: IC50 M. gypseum
[7] = tested on: Alternaria alternata (A. alternata) CCM F-128; experiment: as above; assay type: cell-based; conditions: Alternaria alternata, read-out: IC50 A. alternata
[8] = Filamentous fungi, solidified potato-dextrose growth medium

Compound	dissociation constant pK2 [1]	dissociation constant pK3 [1]	pIC50 ([2]; CCM3988, read-out: IC50 E. coli)	pIC50 ([3]; CCM1959, read-out: IC50 P. aeruginosa)	pIC50 ([4]; CCM3953, read-out: IC50 S. aureus)	pIC50 [5]	pIC50 [6]	pIC50 [7]	dissociation constant pK1 [1]	pIC50 ([2]; CCM3988, Bacteria, MHB, 37 °C, DMSO max 1.0 vol. %, read-out: IC50 E. coli)	pIC50 ([3]; CCM1959, Bacteria, MHB, 37 °C, DMSO max 1.0 vol. %, read-out: IC50 P. aeruginosa)	pIC50 ([4]; CCM3953, Bacteria, MHB, 37 °C, DMSO max 1.0 vol. %, read-out: IC50 S. aureus)	pIC50 ([5]; solidified potato-dextrose growth medium)	pIC50 [6, 8]	pIC50 [7, 8]
O=C(O)c1cccc(C(=O)O)n1 [H2Dpic, dipicolinic acid]	2.02	4.74	< 3.00	< 3.00	< 3.00	3.30	< 3.00	< 3.00							
O=C(O)c1ccccn1 [HPic, picolinic acid]	5.25								1.17	< 3.30	< 3.30	< 3.30	< 3.30	< 3.30	< 3.30
